The text below walks through data of patent US11897867B2, “6-phenyl-4,5-dihydropyridazin-3(2H)-one derivatives as PDE3A and PDE3B inhibitors for treating cancer” (Bayer Aktiengesellschaft, priority 2017, dated 2024).

The subject of experiment [1] is HeLa cells (cervical cancer). Kind of experiment: Cell proliferation measurement (Cell Titer Glo), HeLa. Format: cell-based. The conditions noted are these: Homo sapiens, 72 h treatment, read-out: Anti-proliferation IC50 HeLa (Cervical cancer). Put shortly: (§1)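 Cells (1000/well; 500 for HeLa) plated overnight at 37 °C, then exposed to a ≥10-point compound dilution series for 72 h at 37 °C, DMSO 0.3% final as vehicle. Viability read by CellTiter-Glo luminescence; IC50 from 4-parameter fit against untreated wells.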
For orientation: Cellular ATP, detected with luciferase, serves as a proxy for viable cell number.

The subject of a further experiment is SK-MEL-3 (melanoma). Briefly: Cell proliferation measurement (Cell Titer Glo), SK-MEL-3. In kind it is cell-based. To be noted: Homo sapiens, SK-MEL3, SK-MEL-3 cells, 72 h treatment, read-out: Anti-proliferation IC50 SK-MEL-3 (melanoma). The essentials: as §1
The next experiment deals with T1, human full length PDE3B (Homo sapiens, UniProt Q13370).
T1 construct: Sf9 cells overexpressing human full length PDE3B; purchased SB Drug Discovery, UK; host or cells: Sf9 cells (cell extract)
Briefly: PDE3B enzyme inhibition (3H-cAMP Scintillation Proximity Assay). The conditions noted are these: PDE3B cell extract from Sf9 cells, 60 min room temperature; read-out: Target IC50 PDE3B IC50. Format: biochemical. The essentials: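 SPA with Sf9 cell extract overexpressing human full-length PDE3B, diluted for linear kinetics and <70% substrate turnover, in 50 mM Tris/HCl pH 7.5, 8.3 mM MgCl2, 1.7 mM EDTA, 0.2% BSA. [8-3H]cAMP substrate, 60 min at room temperature, stopped with yttrium SPA beads. IC50 from sigmoidal fit of % activity vs log concentration.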
On the technique in general: SPA uses beads or plates that emit light when radiolabelled molecules are held near them.

A further experiment has as its target T2, human full length PDE3A (Homo sapiens, UniProt Q14432).
T2 construct: Sf9 cells overexpressing human full length PDE3A; purchased SB Drug Discovery, UK; host or cells: Sf9 cells (cell extract)
Kind of experiment: PDE3A enzyme inhibition (3H-cAMP Scintillation Proximity Assay). To be noted: PDE3A cell extract from Sf9 cells, 60 min room temperature; read-out: Target IC50 PDE3A IC50. Format: biochemical. Put shortly: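 Sf9 cell extract overexpressing human full-length PDE3A, diluted for linear kinetics (<70% substrate used), in 50 mM Tris/HCl pH 7.5, 8.3 mM MgCl2, 1.7 mM EDTA, 0.2% BSA. [8-3H]cAMP substrate, 60 min at room temperature, yttrium SPA bead read-out; IC50 from sigmoidal curves of % activity.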

The next experiment deals with IGR-37 (melanoma). Briefly: Cell proliferation measurement (Cell Titer Glo), IGR-37. To be noted: Homo sapiens, IGR-37 cells, 72 h treatment, read-out: Anti-proliferation IC50 IGR-37 (melanoma). In kind it is cell-based. On the procedure:
(§2) The antiproliferative activity of the compounds of the general formula (I) was examined in vitro in human cancer cells. For this purpose, 1000 cells (or 500 HeLa cells) were plated in 384-well plates with appropriate growth medium and incubated at 37° C. overnight. After 24 h, the cells on the test plate were treated with the compounds of the general formula (I) as and incubated at 37° C. for 72 h. The compounds were added to the cells by means of an HP D300 digital dispenser in a 10 (or more)-step dilution series. As control, the cells were treated with vehicle (DMSO at 0.3% final concentration). After 72 h, the cells were treated with 20 μl/well of 50% CTG solution in PBS (Promega Cell Titer Glo (catalogue #G755B and G756B)) and incubated at room temperature for 10 min, and luminescence was measured by means of a VICTOR V (Perkin Elmer), in order to determine cell viability at the end of treatment. The percentage effect on cell growth and the IC50 derived therefrom were determined for each test substance using the values from untreated wells (=percent viability). The IC50 values were calculated using a 4-parameter fit.

A further experiment concerns NCI-H1734. Briefly: Cell proliferation measurement (Cell Titer Glo), NCI-H1734. In kind it is cell-based. The conditions noted are these: Homo sapiens, NCI-H1734 cells, 72 h treatment, read-out: Anti-proliferation IC50 NCI-H1734. The protocol:
as §2

A further experiment has as its system H4. Kind of experiment: Cell proliferation measurement (Cell Titer Glo), H4. In kind it is cell-based. To be noted: Homo sapiens, H4 cells, 72 h treatment, read-out: Anti-proliferation IC50 H4. The protocol:
as §2

Molecules are shown by their SMILES.

T1 sequence (Q13370 whole entry): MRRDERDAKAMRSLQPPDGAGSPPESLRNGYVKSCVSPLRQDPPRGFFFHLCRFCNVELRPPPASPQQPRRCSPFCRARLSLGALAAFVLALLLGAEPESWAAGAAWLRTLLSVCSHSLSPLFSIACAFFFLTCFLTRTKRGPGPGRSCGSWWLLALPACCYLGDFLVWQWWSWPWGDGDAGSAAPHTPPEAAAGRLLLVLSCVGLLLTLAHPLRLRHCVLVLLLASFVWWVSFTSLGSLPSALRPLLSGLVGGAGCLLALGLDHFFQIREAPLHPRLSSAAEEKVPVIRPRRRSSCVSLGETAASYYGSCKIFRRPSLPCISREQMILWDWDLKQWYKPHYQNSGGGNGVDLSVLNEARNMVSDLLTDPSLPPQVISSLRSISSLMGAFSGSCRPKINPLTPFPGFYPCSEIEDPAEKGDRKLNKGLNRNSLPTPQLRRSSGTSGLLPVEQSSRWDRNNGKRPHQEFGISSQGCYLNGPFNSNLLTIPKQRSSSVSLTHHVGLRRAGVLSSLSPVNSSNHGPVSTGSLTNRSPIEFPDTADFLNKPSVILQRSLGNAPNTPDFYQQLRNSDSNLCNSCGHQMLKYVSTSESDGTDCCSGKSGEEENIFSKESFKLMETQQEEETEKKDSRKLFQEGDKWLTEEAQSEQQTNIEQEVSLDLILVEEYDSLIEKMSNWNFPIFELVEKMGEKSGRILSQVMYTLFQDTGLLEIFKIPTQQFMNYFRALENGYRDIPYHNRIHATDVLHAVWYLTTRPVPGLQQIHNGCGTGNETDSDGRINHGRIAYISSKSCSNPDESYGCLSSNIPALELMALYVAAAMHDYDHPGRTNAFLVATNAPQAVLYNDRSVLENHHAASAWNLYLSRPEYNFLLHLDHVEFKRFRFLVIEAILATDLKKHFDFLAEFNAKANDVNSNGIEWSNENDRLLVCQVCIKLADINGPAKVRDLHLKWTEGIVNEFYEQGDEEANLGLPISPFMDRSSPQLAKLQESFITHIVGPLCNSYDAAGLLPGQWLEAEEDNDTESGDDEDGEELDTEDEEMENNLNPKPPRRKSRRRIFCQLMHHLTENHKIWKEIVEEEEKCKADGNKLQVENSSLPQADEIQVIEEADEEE
T2 sequence (Q14432 whole entry): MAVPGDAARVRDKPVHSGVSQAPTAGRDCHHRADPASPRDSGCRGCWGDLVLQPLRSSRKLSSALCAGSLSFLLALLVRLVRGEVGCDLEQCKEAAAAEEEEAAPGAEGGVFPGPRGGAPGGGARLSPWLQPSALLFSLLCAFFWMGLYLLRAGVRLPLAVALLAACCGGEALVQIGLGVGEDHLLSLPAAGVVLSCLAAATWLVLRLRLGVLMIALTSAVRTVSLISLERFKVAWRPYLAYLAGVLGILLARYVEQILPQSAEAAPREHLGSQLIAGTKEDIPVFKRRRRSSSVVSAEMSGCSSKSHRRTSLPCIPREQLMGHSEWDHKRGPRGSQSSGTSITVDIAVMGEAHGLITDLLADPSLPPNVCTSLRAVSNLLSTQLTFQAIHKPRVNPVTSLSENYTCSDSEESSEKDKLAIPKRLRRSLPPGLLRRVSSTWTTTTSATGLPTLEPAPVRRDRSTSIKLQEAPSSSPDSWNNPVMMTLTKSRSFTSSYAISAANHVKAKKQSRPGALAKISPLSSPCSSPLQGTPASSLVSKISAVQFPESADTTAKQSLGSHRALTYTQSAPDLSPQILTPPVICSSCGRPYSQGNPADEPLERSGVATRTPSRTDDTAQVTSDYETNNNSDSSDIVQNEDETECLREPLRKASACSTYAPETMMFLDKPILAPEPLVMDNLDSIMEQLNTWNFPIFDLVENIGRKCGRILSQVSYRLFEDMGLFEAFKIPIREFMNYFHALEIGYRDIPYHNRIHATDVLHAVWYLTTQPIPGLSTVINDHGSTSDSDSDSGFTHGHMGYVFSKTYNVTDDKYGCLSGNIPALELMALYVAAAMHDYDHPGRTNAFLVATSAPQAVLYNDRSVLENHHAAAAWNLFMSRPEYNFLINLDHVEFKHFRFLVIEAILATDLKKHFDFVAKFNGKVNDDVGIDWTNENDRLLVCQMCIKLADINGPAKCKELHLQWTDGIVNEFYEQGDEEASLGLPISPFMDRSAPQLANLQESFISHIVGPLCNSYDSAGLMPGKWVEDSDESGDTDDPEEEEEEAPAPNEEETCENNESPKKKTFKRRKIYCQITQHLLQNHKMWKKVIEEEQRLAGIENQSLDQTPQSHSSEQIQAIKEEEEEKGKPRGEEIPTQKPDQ

In the case of `O=C1CCC(c2ccc(NCC(O)C(F)(F)F)c(C(F)(F)F)c2)=NN1` (racemic) [Example 130, 6-[4-{[3,3,3-trifluoro-2-hydroxypropyl]amino}-3-(trifluoromethyl)phenyl]-4,5-dihydropyridazin-3(2H)-one (racemic)], the IC50 came to 4.32 nM in experiment [1]; 8.73 nM in the experiment with SK-MEL-3 (melanoma); 86 nM on human full length PDE3B; 89 nM on human full length PDE3A; 9.03 nM in the experiment on IGR-37 (melanoma).
For the compound `Cc1cc(C2=NNC(=O)CC2)ccc1-c1ccc(F)cc1` [Example 3, 6-(4′-Fluoro-2-methylbiphenyl-4-yl)-4,5-dihydropyridazin-3(2H)-one], the IC50 in the experiment with NCI-H1734 amounted to 27.7 nM; in experiment [1], 4.59 nM; in the experiment with SK-MEL-3 (melanoma), 8.42 nM; at human full length PDE3B, 150 nM; at human full length PDE3A it was 190 nM; in the experiment with H4 it was 36.6 nM.
On to `O=C1CCC(c2cc(F)c(N3CCC(F)(F)C3)c(F)c2)=NN1` [Example 13, 6-[4-(3,3-Difluoropyrrolidin-1-yl)-3,5-difluorophenyl]-4,5-dihydropyridazin-3(2H)-one], for which the IC50 in the experiment with NCI-H1734 is 32 nM; in experiment [1] it was 5.59 nM; with SK-MEL-3 (melanoma), 13.8 nM; on human full length PDE3B, 250 nM; at human full length PDE3A, 310 nM; with H4, 41.1 nM.
Turning to `O=C1CCC(c2cc(F)c(N3CC4CC4C3)c(F)c2)=NN1` (stereo not shown) [Example 14, 6-[4-(3-Azabicyclo[3.1.0]hex-3-yl)-3,5-difluorophenyl]-4,5-dihydropyridazin-3(2H)-one], the IC50 in the experiment on NCI-H1734 is 18.8 nM; in experiment [1], 2.16 nM; in the experiment with SK-MEL-3 (melanoma), 5.84 nM; at human full length PDE3B, 77 nM; at human full length PDE3A it was 180 nM; in the experiment on H4 it was 30.9 nM.
Consider `O=C1CCC(c2ccc(N3CCC(F)(F)C3)c(C(F)(F)F)c2)=NN1` [Example 22, 6-[4-(3,3-Difluoropyrrolidin-1-yl)-3-(trifluoromethyl)phenyl]-4,5-dihydropyridazin-3(2H)-one], for which the IC50 in experiment [1] was 5.2 nM; in the experiment with SK-MEL-3 (melanoma), 718 nM; at human full length PDE3B it was 148 nM; at human full length PDE3A, 159 nM; with IGR-37 (melanoma), 8.82 nM.
For the compound `Cc1ccccc1-c1ccc(C2=NNC(=O)CC2)cc1C` [Example 116, 6-(2,2′-dimethyl[1,1′-biphenyl]-4-yl)-4,5-dihydropyridazin-3(2H)-one], the IC50 in experiment [1] was 8.39 nM; in the experiment on SK-MEL-3 (melanoma), 42.9 nM; at human full length PDE3B, 170 nM; at human full length PDE3A, 220 nM.
Taken in the same sequence, the figures for `CCc1ccccc1-c1ccc(C2=NNC(=O)CC2)cc1C` [Example 117, 6-(2′-ethyl-2-methyl[1,1′-biphenyl]-4-yl)-4,5-dihydropyridazin-3(2H)-one] were 51.4 nM, greater than 100 nM, 440 nM and 540 nM.
In the case of `COc1ccc(-c2ccc(C3=NNC(=O)CC3)cc2C)cn1` [Example 118, 6-[4-(6-methoxypyridin-3-yl)-3-methylphenyl]-4,5-dihydropyridazin-3(2H)-one], the IC50 was 55.4 nM in experiment [1], greater than 100 nM in the experiment on SK-MEL-3 (melanoma), 90 nM at human full length PDE3B and 76 nM at human full length PDE3A.
As for `Cc1cc(-c2ccc(C3=NNC(=O)CC3)cc2C)ccc1F` [Example 119, 6-(4′-fluoro-2,3′-dimethyl[1,1′-biphenyl]-4-yl)-4,5-dihydropyridazin-3(2H)-one], the IC50 in experiment [1] was 65.8 nM; in the experiment with SK-MEL-3 (melanoma), greater than 100 nM; at human full length PDE3B it was 290 nM; on human full length PDE3A, 290 nM.
Consider `Cc1cccc(-c2ccc(C3=NNC(=O)CC3)cc2C)c1` [Example 120, 6-(2,3′-dimethyl[1,1′-biphenyl]-4-yl)-4,5-dihydropyridazin-3(2H)-one], for which the IC50 in experiment [1] was 45.9 nM; with SK-MEL-3 (melanoma) it was greater than 100 nM; at human full length PDE3B, 180 nM; at human full length PDE3A, 200 nM.
Take `Cc1ccc(-c2ccc(C3=NNC(=O)CC3)cc2C)cc1` [Example 121, 6-(2,4′-dimethyl[1,1′-biphenyl]-4-yl)-4,5-dihydropyridazin-3(2H)-one]: the IC50 in experiment [1] was determined as 7.15 nM; with SK-MEL-3 (melanoma), 33.6 nM; at human full length PDE3B, 230 nM; on human full length PDE3A it was 230 nM.
`Cc1cc(C2=NNC(=O)CC2)ccc1-c1ccc(Cl)cc1` [Example 122, 6-(4′-chloro-2-methyl[1,1′-biphenyl]-4-yl)-4,5-dihydropyridazin-3(2H)-one]: the IC50 in experiment [1] worked out at 2.67 nM; with SK-MEL-3 (melanoma) it was 9.92 nM; at human full length PDE3B, 200 nM; at human full length PDE3A, 280 nM.
For the compound `O=C1CCC(c2ccc(N3CCOCC3)cc2)=NN1` [Example 123, 6-[4-(morpholin-4-yl)phenyl]-4,5-dihydropyridazin-3(2H)-one], the IC50 in experiment [1] is 79.8 nM; in the experiment with SK-MEL-3 (melanoma) it was greater than 100 nM; at human full length PDE3B, greater than 1000 nM; with IGR-37 (melanoma) it was 276 nM.
Regarding `O=C1CCC(c2cc(Cl)c(N3CCOCC3)c(Cl)c2)=NN1` [Example 124, 6-[3,5-dichloro-4-(morpholin-4-yl)phenyl]-4,5-dihydropyridazin-3(2H)-one], the IC50 in experiment [1] was 6.9 nM; with SK-MEL-3 (melanoma) it was 16.8 nM; at human full length PDE3B it was 73 nM; on human full length PDE3A it was 59 nM; in the experiment with IGR-37 (melanoma) it was 32.9 nM.
Taken in the same sequence, the figures for `O=C1CCC(c2ccc(Cl)c(Cl)c2)=NN1` [Example 125, 6-(3,4-Dichlorophenyl)-4,5-dihydropyridazin-3(2H)-one] were 16 nM, 36.1 nM, 335 nM, 625 nM and 55.1 nM.
`O=C1CCC(c2ccc(N3CCOCC3)c(C(F)(F)F)c2)=NN1` [Example 126, 6-[4-(Morpholin-4-yl)-3-(trifluoromethyl)phenyl]-4,5-dihydropyridazin-3(2H)-one]: the IC50 in experiment [1] came out at 5.29 nM; with SK-MEL-3 (melanoma) it was 7.06 nM; at human full length PDE3B, 95 nM; on human full length PDE3A it was 59 nM.
For the compound `O=C1CCC(c2ccc(-c3cnn(C(F)F)c3)c(C(F)(F)F)c2)=NN1` [Example 127, 6-{4-[1-(difluoromethyl)-1H-pyrazol-4-yl]-3-(trifluoromethyl)phenyl}-4,5-dihydropyridazin-3(2H)-one], the IC50 in experiment [1] stood at 1.78 nM; in the experiment on SK-MEL-3 (melanoma), 3.64 nM; on human full length PDE3B it was 77 nM; at human full length PDE3A, 73 nM; in the experiment with IGR-37 (melanoma) it was 5.37 nM.
In the case of `O=C1CCC(c2ccc(-c3ccc(F)cc3)c(C(F)(F)F)c2)=NN1` [Example 128, 6-[4′-fluoro-2-(trifluoromethyl)[1,1′-biphenyl]-4-yl]-4,5-dihydropyridazin-3(2H)-one], the IC50 in experiment [1] turned out to be 7.79 nM; in the experiment with SK-MEL-3 (melanoma) it was 15.2 nM; on human full length PDE3B, 210 nM; at human full length PDE3A, 240 nM; in the experiment with IGR-37 (melanoma) it was 34.8 nM.
Taken in the same sequence, the figures for `COCCNc1ccc(C2=NNC(=O)CC2)cc1C(F)(F)F` [Example 129, 6-{4-[(2-methoxyethyl)amino]-3-(trifluoromethyl)phenyl}-4,5-dihydropyridazin-3(2H)-one] were 2.14 nM, 4.58 nM, 210 nM, 120 nM and 4.77 nM.
Taken in the same sequence, the figures for `O=C1CCC(c2ccc(-n3ccc(C(F)(F)F)n3)c(F)c2)=NN1` [Example 131, 6-{3-fluoro-4-[3-(trifluoromethyl)-1H-pyrazol-1-yl]phenyl}-4,5-dihydropyridazin-3(2H)-one] were 17.7 nM, 36.2 nM, 385 nM, 620 nM and 43.8 nM.
